# Results as given in patent publication US12616691B2, “Use of fatty acid oxidation inhibitors as antimicrobials” (Washington University in St. Louis, priority 2018, dated 2026).
# pIC50: −log10 of the molar value. Where two headings read alike, the source gives them in different places.
# Columns and labels:
# Mtb (H37Rv) = assay: MIC on Mtb (H37Rv) in liquid; type: cell-based, Mycobacterium tuberculosis; conditions: for MIC: Mycobacterium tuberculosis
# FAO [1] = conditions: murine and human monocyte-derived macrophages; cited from earlier work
# long-chain 3-KAT = target: T1, long-chain 3-KAT (Rattus norvegicus, UniProt Q60587); conditions: rat heart mitochondria; cited from earlier work
# T1 construct: from tissue; host or cells: rat heart mitochondria
# T1 sequence (Q60587 35-475): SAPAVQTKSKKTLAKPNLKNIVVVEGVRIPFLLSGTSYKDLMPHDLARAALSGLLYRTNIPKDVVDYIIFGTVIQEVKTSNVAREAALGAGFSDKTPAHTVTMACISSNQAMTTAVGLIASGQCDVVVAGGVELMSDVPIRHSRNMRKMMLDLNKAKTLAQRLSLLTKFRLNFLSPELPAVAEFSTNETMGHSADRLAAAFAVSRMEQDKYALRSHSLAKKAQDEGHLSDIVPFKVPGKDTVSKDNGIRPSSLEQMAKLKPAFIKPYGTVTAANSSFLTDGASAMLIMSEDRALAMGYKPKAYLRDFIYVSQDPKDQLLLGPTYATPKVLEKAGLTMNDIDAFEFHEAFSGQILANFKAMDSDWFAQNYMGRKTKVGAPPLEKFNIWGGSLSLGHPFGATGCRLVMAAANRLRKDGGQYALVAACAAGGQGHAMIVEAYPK
# T1 sequence (Q64428 37-763 partner): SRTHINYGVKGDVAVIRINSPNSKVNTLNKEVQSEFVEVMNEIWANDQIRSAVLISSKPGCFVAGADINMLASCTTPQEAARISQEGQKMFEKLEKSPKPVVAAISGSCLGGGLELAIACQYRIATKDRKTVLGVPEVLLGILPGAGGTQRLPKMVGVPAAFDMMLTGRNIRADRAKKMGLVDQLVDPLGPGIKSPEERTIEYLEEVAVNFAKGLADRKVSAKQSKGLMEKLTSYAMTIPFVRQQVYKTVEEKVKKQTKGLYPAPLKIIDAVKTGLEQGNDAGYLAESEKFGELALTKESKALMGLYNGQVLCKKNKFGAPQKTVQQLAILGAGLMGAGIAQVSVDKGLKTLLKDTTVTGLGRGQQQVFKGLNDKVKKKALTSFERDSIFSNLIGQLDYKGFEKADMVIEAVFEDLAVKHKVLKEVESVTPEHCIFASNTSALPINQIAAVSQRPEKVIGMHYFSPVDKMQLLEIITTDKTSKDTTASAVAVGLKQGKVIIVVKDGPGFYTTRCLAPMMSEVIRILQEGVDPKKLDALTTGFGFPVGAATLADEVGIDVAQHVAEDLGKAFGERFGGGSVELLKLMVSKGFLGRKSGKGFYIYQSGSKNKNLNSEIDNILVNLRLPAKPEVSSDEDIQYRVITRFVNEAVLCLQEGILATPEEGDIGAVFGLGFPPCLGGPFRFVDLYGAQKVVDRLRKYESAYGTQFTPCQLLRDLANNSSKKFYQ
# total cellular ROS = assay: Total cellular ROS (CellRox staining) in macrophages; type: cell-based
# Method: Total cellular ROS levels were compared in FAO inhibitor-treated and untreated samples using CellRox (Molecular Probes) staining. Macrophages were infected as previously described and co-localization of Mth with subunits of the NADPH oxidase (p40^phox and gp91^phox/NOX2) were monitored in FAO inhibitor-treated and untreated samples. To determine whether FAO inhibition induced oxidative stress in the host, uninfected RAW 264.7 cells were treated with TMZ at 5 nM and 500 nM and ETM at 50 μM and total cellular ROS was determined at 1, 3, and 24 hours post-treatment using CellRox dye. In parallel, tert-butyl hydroperoxide (0.5 mM tBHP) was used as a positive control. The samples were imaged using confocal microscopy and the fluorescence intensity of each cell was quantified.
# FAO [2] = conditions: cited from earlier work
# [3] = set-up: species or system mice; conditions: in vivo
# Method: A pharmacokinetics (PK) study of TMZ in C57BL/6 mice was performed. […] Therefore, subcutaneous osmotic pumps were used to maintain steady state plasma levels of TMZ. A second PK study was performed using subcutaneous osmotic pumps (Alzet Osmotic Pumps) to establish the optimal infusion rate and dosing for a subsequent efficacy study. TMZ steady state exposure in mice was successfully achieved with the use of subcutaneous osmotic pumps.
# Mtb = assay: MIC against Mtb in human THP1 cells; type: cell-based, Mycobacterium tuberculosis
# Description: If CPT-1 and 3-KAT are the relevant antimicrobial targets, respectively, concordance in the potency of the compounds is anticipated in the assays. […] The MIC of TMZ against Mtb in human THP1 cells was approximately […].
# LC3 = assay: Autophagy flux (LC3 with and without bafilomycin A1) in H37Rv-infected BMDMs; type: cell-based; conditions: 500 nM, 3 hours
# BMDMs [4] = assay: Macrophage viability (calcein-AM); type: cell-based, murine; conditions: 72 hours
# Method: FIG. 4B depicts the effect of metformin and oxfenicine on macrophage viability. BMDMs were treated with the indicated concentration of compound for 72 hours, and viability was assessed using the cellular dye, calcein-AM, and normalized to untreated controls (--). Data are mean+/−SD.
# Importantly, plasma concentrations of TMZ in patients treated for angina (60 mg/day) are 70-100 nM, in line with the ability of TMZ to inhibit FAO in intact hearts at 100 nM. […] BMDMs were treated with the indicated concentration of compound for 72 hours, and viability was assessed using the cellular dye, calcein-AM, and normalized to untreated controls (--).
# The antimicrobial activity and FAO inhibition was analyzed for cellular toxicity. BMDMs were treated with the indicated concentration of compound for 72 hours, and viability was assessed using the cellular dye, calcein-AM, and normalized to untreated controls (--).
# [5] = human, in vivo, 20 mg; cited from earlier work
# [6] = system: IL-6, TNF-α, IL-1α/β, and IL-10; assay: Cytokine levels in supernatants of BMDMs; type: cell-based; conditions: wild type BMDMs, 5 nM, 24 and 72 hpi
# Method: (§1) Oxygen consumption rate (OCR) and extracellular acidification rate (ECAR) was measured using SeaHorse Analyzers in uninfected wild type and FAO-deficient carnitine palmitoyltransferase 2 KO (Cpt2 cKO) BMDMs treated with 5 nM TMZ. Additionally, whether FAO inhibitors promoted pro-inflammatory signaling was tested. Wild type macrophages were infected with H37Rv and treated with 5 nM TMZ for 24 and 72 hpi. Following filter sterilization, sample supernatants were examined for pro-inflammatory cytokines including, IL-1β, IL-6, TNF-α, and the anti-inflammatory cytokine IL-10.
# BMDMs [7] = assay: OCR and ECAR by SeaHorse metabolic flux assay in BMDMs; type: cell-based; conditions: wild type BMDMs, 5 nM, 3 hours
# Method: as §1
# p62 = assay: Autophagy induction: p62 co-localization with Mtb and p62 puncta in BMDMs; type: cell-based; conditions: 5 nM
# Method: Wild type BMDMs were infected with H37Rv expressing DsRed at MOI 1:5 for 4 hours. After bacterial uptake, the culture medium was supplemented with TMZ (5 nm). At 24 hours post infection (hpi), samples were fixed and immunostained with p62 (green). Alternatively, bacterial numbers were enumerated by CFU at 3 days post infection (dpi). For IF, images were captured using a confocal microscope equipped with a 60× oil immersion objective lens. To quantify co-localation of Mtb and autophagosomes each bacteria was converted to a region of interest (ROI) and the mean fluorescence intensity of the p62 signal was measured. To assess autophagy induction, the total p62 puncta per cell in shapes that were untreated or treated with TMZ. IFN-γ, which activates autophagy, was used as a positive control.
# H37Rv = assay: Efficacy of TMZ in acute TB infection in mice (CFU in lungs and spleen); type: in vivo, Mycobacterium tuberculosis; conditions: 16.8 mg/kg/day, 2 weeks
# mitochondrial ROS = assay: Mitochondrial ROS (mitoSOX) in uninfected BMDMs; type: cell-based; conditions: TMZ 500 nM 3 hours; antimycin 30 μM, rotenone 10 μM 30 minutes
# Method: Mitochondrial ROS production was measured in macrophages treated with TMZ in combination with ETC inhibitors antimycin and rotenone. Rotenone inhibits Complex I (NADH coenzymeQ reductase) and antimycin is an inhibitor of Complex III (coenzyme Q: cytochrome C oxidoreductase). Uninfected BMDMs were treated with 500 nM TMZ for 3 hours. Thirty minutes prior to termination of the experiment, antimycin (30 μM) and rotenone (10 μM) were added. Menadione (60 μM, 30 mins), which causes mitochondrial depolarization, was used as a positive control. Mitochondrial ROS production was increased in samples treated with TMZ, antimycin and rotenone (FIG. 14A). However, contrasting results were observed when TMZ was used in combination with the ETC inhibitors.
# M. abscessus = assay: Intracellular growth of M. abscessus in RAW264.7 cells and BMDMs (CFU); type: cell-based, Mycobacterium abscessus; conditions: RAW264.7 cells and wt BMDMs, 500 nM
# gp91phox/NOX2 = assay: Co-localization of Mtb with NADPH oxidase subunit NOX2 in BMDMs; type: cell-based; conditions: 24 hours
# [8] = Mtb (H37Rv) in liquid, read-out: MIC
molecule,measurement,setting,value
"CCOC(=O)C1(CCCCCCOc2ccc(Cl)cc2)CO1 (centres unmarked) [Etomoxir, ethyl 2-[6-(4-chlorophenoxy)hexyl]oxirane-2-carboxylate]",MIC,Mtb (H37Rv); [8],> 250 µM
same,direct effect on Mtb growth,Mtb (H37Rv); ten times the dose that inhibited intracellular Mtb,did not directly prevent Mtb growth
same,concentration that blocks FAO in macrophages,FAO [1],10 to 25 µM
"NNC(=O)c1ccncc1 [INH, isoniazid]",MIC,Mtb (H37Rv); [8],< 0.3 µM
"CN(C)C(=N)N=C(N)N [Metformin, metformin]",MIC,Mtb (H37Rv); [8],> 15000 µM
"C1CCC(C(CC2CCCCN2)C2CCCCC2)CC1 (centres unmarked) [Perhexiline, 2-(2,2-dicyclohexylethyl)piperidine]",MIC,Mtb (H37Rv); [8],> 100 µM
"COc1ccc(CN2CCNCC2)c(OC)c1OC [Trimetazidine, 1-(2,3,4-trimethoxybenzyl)piperazine]",pIC50,long-chain 3-KAT,~7.12
same,total cell ROS in Mtb-infected Atg5 KO BMDMs,total cellular ROS; 3 hour treatment,increased ROS signal
same,total cell ROS in Mtb-infected Nox2 KO BMDMs,"total cellular ROS; 24 hours, 5 nM",significant increase in ROS
same,total cell ROS in Mtb-infected wild type BMDMs,"total cellular ROS; 24 hours, 5 nM",induced ROS
same,concentration that inhibits FAO in intact hearts,FAO [2],100 nM
same,predicted free drug concentrations,"[3]; C57BL/6, mouse, 16.8 mg/kg/day",135 nM
same,half-life,[3]; mouse,less than an hour
same,MIC against Mtb in human THP1 cells,Mtb,approximately 50 nM
same,MIC,Mtb (H37Rv); H37RV,1000 µM
same,autophagy flux,LC3,No changes
same,macrophage toxicity,BMDMs [4],not related to macrophage toxicity
same,Cmax,[5],313 nM
same,"levels of IL-6, TNF-α, IL-1α/β, and IL-10",[6],No significant difference
same,ECAR,BMDMs [7],decrease
same,total number of p62 puncta in macrophages,p62,significantly increased
same,co-localization of H37Rv and p62,p62; 24 hpi,increased
same,reduction in Mtb CFUs in the lungs,H37Rv; C57Bl/6 mice,50-70%
same,bacterial burden in lung and spleen tissues,H37Rv; vs untreated control mice,significantly reduced bacterial burden
same,mitochondrial ROS production,mitochondrial ROS,increased
same,M. abscessus infection (CFU),M. abscessus,significantly decreased infection
same,co-localization of Mtb and NOX2,gp91phox/NOX2,increased
C=C(C)[C@H]1Cc2c(ccc3c2O[C@@H]2COc4cc(OC)c(OC)cc4[C@@H]2C3=O)O1 [rotenone],mitochondrial ROS production,mitochondrial ROS,increased
antimycin,mitochondrial ROS production,mitochondrial ROS,increased
